Assay results reported in US8076487B2, “Pyridone derivative and herbicide” (Kumiai Chemical Industry Co., Ltd., priority 2006, dated 2011).

Experiments:
Type in all cases: in vivo
[1] = test system: barnyardgrass (Echinochloa crus-galli (L.) P. Beauv. var. crus-galli); experiment: Test Example 3: herbicidal effect by application to upland field (foliage treatment); settings: 14th day after application; for herbicidal effect (index), Barnyardgrass: foliage treatment, plants grown two weeks, 1,000 g active ingredient per hectare; for herbicidal effect, Barnyardgrass: foliage treatment, 1,000 g active ingredient per 1 hectare, greenhouse
Description: (§1) [table] Test Example 3 Test on Herbicidal Effect by Application to Upland Field In a 80 cm2 plastic pot, field soil was filled. Seeds of barnyardgrass (Echinochloa crus-galli (L.) P. Beauv. var. crus-galli), green foxtail (Setaria viridis (L.) P. Beauv.), velvetleaf (Abutilon theophrasti medicus), and slender amaranth (Amaranthus viridis L.) were sown and allowed to grow for two weeks in a greenhouse. Thereafter, the wettable powder prepared according to Formulation Example 1 was diluted in water and a 1,000 liter equivalent amount per 1 hectare so that the active ingredient becomes 1,000 g per 1 hectare was sprayed using a small sprayer from a top of the plants through its entire body for foliage treatment. Then, on the 14th day after the application to the plants grew in a greenhouse, the herbicidal effect was examined in accordance with a standard shown in Table 34.

[2] = test system: slender amaranth (Amaranthus viridis L.); experiment: as above; settings: 14th day after application; for herbicidal effect (index), Slender Amaranth: foliage treatment, plants grown two weeks, 1,000 g active ingredient per hectare; for herbicidal effect, Slender Amaranth: foliage treatment, 1,000 g active ingredient per 1 hectare, greenhouse
Description: as §1

[3] = test system: green foxtail (Setaria viridis (L.) P. Beauv.); experiment: as above; settings: 14th day after application; for herbicidal effect (index), Green Foxtail: foliage treatment, plants grown two weeks, 1,000 g active ingredient per hectare; for herbicidal effect, Green Foxtail: foliage treatment, 1,000 g active ingredient per 1 hectare, greenhouse
Description: as §1

[4] = test system: velvetleaf (Abutilon theophrasti medicus); experiment: as above; settings: 14th day after application; for herbicidal effect (index), Velvetleaf: foliage treatment, plants grown two weeks, 1,000 g active ingredient per hectare; for herbicidal effect, Velvetleaf: foliage treatment, 1,000 g active ingredient per 1 hectare, greenhouse
Description: as §1

[5] = test system: early watergrass (Echinochloa oryzicola Vasing); experiment: Test Example 1: herbicidal effect by soil application to paddy field; settings: paddy field soil application; active ingredient 1,000 g per 1 hectare; wettable powder added dropwise to water surface the day after sowing; examined on the 21st day after application
In short: (§2)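 Under greenhouse conditions, seeds sown on puddled paddy soil in 100 cm2 pots under 3 cm of standing water received the test compound; injury was assessed with a standard scoring scheme three weeks (day 21) after treatment.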

[6] = test system: heartshape false pickerelweed (Monochoria vaginalis (Burm.f.) C.Presl); experiment: as above; settings: paddy field soil application; active ingredient 1,000 g per 1 hectare; wettable powder added dropwise to water surface the day after sowing; examined on the 21st day after application
In short: as §2

[7] = test system: Japanese bulrush (Scirpus juncoides Roxb.); experiment: as above; settings: paddy field soil application; active ingredient 1,000 g per 1 hectare; wettable powder added dropwise to water surface the day after sowing; examined on the 21st day after application
In short: as §2

`CS(=O)(=O)Cn1c(C(F)(F)F)ccc(C(=O)C2=C(O)CCCC2=O)c1=O` [I-47] was tested, and the “herbicidal effect (index), Barnyardgrass” value [1] was 5 (90% or more of herbicidal effect and crop phytotoxicity), the “herbicidal effect (index), Slender Amaranth” value [2] was 5 (90% or more of herbicidal effect and crop phytotoxicity) and the “herbicidal effect (index), Green Foxtail” value [3] was 4 (70 to less than 90% of herbicidal effect and crop phytotoxicity). For the same compound, the “herbicidal effect (index), Velvetleaf” value [4] was 5 (90% or more of herbicidal effect and crop phytotoxicity), the “herbicidal effect, Echinochloa oryzicola Vasing” value [5] was 5 (90% or more of herbicidal effect and crop phytotoxicity) and the “herbicidal effect, Monochoria vaginalis (Burm. f.) C. Presl” value (“herbicidal effect, Monochoria vaginalis” below) [6] was 5 (90% or more of herbicidal effect and crop phytotoxicity). For the same compound, the “herbicidal effect, Scirpus juncoides Roxb.” value [7] was 5 (90% or more of herbicidal effect and crop phytotoxicity).

With `O=C1CCCC(O)=C1C(=O)c1ccc(C(F)(F)F)n(CSC2CCCCC2)c1=O` [I-61] the “herbicidal effect (index), Barnyardgrass” value [1] was 5 (90% or more of herbicidal effect and crop phytotoxicity), the “herbicidal effect (index), Slender Amaranth” value [2] was 5 (90% or more of herbicidal effect and crop phytotoxicity) and the “herbicidal effect (index), Green Foxtail” value [3] was 4 (70 to less than 90% of herbicidal effect and crop phytotoxicity). For the same compound, the “herbicidal effect (index), Velvetleaf” value [4] was 5 (90% or more of herbicidal effect and crop phytotoxicity), the “herbicidal effect, Echinochloa oryzicola Vasing” value [5] was 5 (90% or more of herbicidal effect and crop phytotoxicity) and the “herbicidal effect, Monochoria vaginalis” value [6] was 5 (90% or more of herbicidal effect and crop phytotoxicity). The “herbicidal effect, Scirpus juncoides Roxb.” value [7] was 4 (70 to less than 90% of herbicidal effect and crop phytotoxicity).

`CSCCCn1c(C(F)(F)F)ccc(C(=O)C2=C(O)CCCC2=O)c1=O` [I-69] was tested, and the “herbicidal effect (index), Barnyardgrass” value [1] was 5 (90% or more of herbicidal effect and crop phytotoxicity), the “herbicidal effect (index), Slender Amaranth” value [2] was 5 (90% or more of herbicidal effect and crop phytotoxicity) and the “herbicidal effect (index), Green Foxtail” value [3] was 5 (90% or more of herbicidal effect and crop phytotoxicity). For the same compound, the “herbicidal effect (index), Velvetleaf” value [4] was 5 (90% or more of herbicidal effect and crop phytotoxicity), the “herbicidal effect, Echinochloa oryzicola Vasing” value [5] was 5 (90% or more of herbicidal effect and crop phytotoxicity) and the “herbicidal effect, Monochoria vaginalis” value [6] was 5 (90% or more of herbicidal effect and crop phytotoxicity). For the same compound, the “herbicidal effect, Scirpus juncoides Roxb.” value [7] was 5 (90% or more of herbicidal effect and crop phytotoxicity).

`COc1ccc(-n2c(C(F)(F)F)ccc(C(=O)C3=C(O)CCCC3=O)c2=O)cc1` [I-78] was tested, and the “herbicidal effect (index), Barnyardgrass” value [1] was 5 (90% or more of herbicidal effect and crop phytotoxicity), the “herbicidal effect (index), Slender Amaranth” value [2] was 5 (90% or more of herbicidal effect and crop phytotoxicity) and the “herbicidal effect (index), Green Foxtail” value [3] was 5 (90% or more of herbicidal effect and crop phytotoxicity). For the same compound, the “herbicidal effect (index), Velvetleaf” value [4] was 5 (90% or more of herbicidal effect and crop phytotoxicity), the “herbicidal effect, Echinochloa oryzicola Vasing” value [5] was 5 (90% or more of herbicidal effect and crop phytotoxicity) and the “herbicidal effect, Monochoria vaginalis” value [6] was 5 (90% or more of herbicidal effect and crop phytotoxicity). The “herbicidal effect, Scirpus juncoides Roxb.” value [7] was 5 (90% or more of herbicidal effect and crop phytotoxicity).

`O=C1CCCC(O)=C1C(=O)c1ccc(C(F)(F)F)n(-c2c(F)cccc2F)c1=O` [I-104] was tested, and the “herbicidal effect (index), Barnyardgrass” value [1] was 5 (90% or more of herbicidal effect and crop phytotoxicity), the “herbicidal effect (index), Slender Amaranth” value [2] was 5 (90% or more of herbicidal effect and crop phytotoxicity) and the “herbicidal effect (index), Green Foxtail” value [3] was 4 (70 to less than 90% of herbicidal effect and crop phytotoxicity). For the same compound, the “herbicidal effect (index), Velvetleaf” value [4] was 5 (90% or more of herbicidal effect and crop phytotoxicity), the “herbicidal effect, Echinochloa oryzicola Vasing” value [5] was 5 (90% or more of herbicidal effect and crop phytotoxicity) and the “herbicidal effect, Monochoria vaginalis” value [6] was 5 (90% or more of herbicidal effect and crop phytotoxicity). The “herbicidal effect, Scirpus juncoides Roxb.” value [7] was 5 (90% or more of herbicidal effect and crop phytotoxicity).

For `O=C1CCCC(O)=C1C(=O)c1ccc(C(F)(F)F)n(Cc2cccc([N+](=O)[O-])c2)c1=O` [I-116], the “herbicidal effect, Barnyardgrass” value [1] was 5 (90% or more of herbicidal effect and crop phytotoxicity), the “herbicidal effect, Slender Amaranth” value [2] was 5 (90% or more of herbicidal effect and crop phytotoxicity) and the “herbicidal effect, Green Foxtail” value [3] was 3 (50 to less than 70% of herbicidal effect and crop phytotoxicity). For the same compound, the “herbicidal effect, Velvetleaf” value [4] was 5 (90% or more of herbicidal effect and crop phytotoxicity), the “herbicidal effect, Echinochloa oryzicola Vasing” value [5] was 5 (90% or more of herbicidal effect and crop phytotoxicity) and the “herbicidal effect, Monochoria vaginalis” value [6] was 5 (90% or more of herbicidal effect and crop phytotoxicity). The “herbicidal effect, Scirpus juncoides Roxb.” value [7] was 5 (90% or more of herbicidal effect and crop phytotoxicity).

For `Cn1nc(C(F)(F)F)c(Cn2c(C(F)(F)F)ccc(C(=O)C3=C(O)CCCC3=O)c2=O)c1OC(F)F` [I-127], the “herbicidal effect, Barnyardgrass” value [1] was 5 (90% or more of herbicidal effect and crop phytotoxicity), the “herbicidal effect, Slender Amaranth” value [2] was 5 (90% or more of herbicidal effect and crop phytotoxicity) and the “herbicidal effect, Green Foxtail” value [3] was 5 (90% or more of herbicidal effect and crop phytotoxicity). For the same compound, the “herbicidal effect, Velvetleaf” value [4] was 5 (90% or more of herbicidal effect and crop phytotoxicity), the “herbicidal effect, Echinochloa oryzicola Vasing” value [5] was 4 (70 to less than 90% of herbicidal effect and crop phytotoxicity) and the “herbicidal effect, Monochoria vaginalis” value [6] was 4 (70 to less than 90% of herbicidal effect and crop phytotoxicity). For the same compound, the “herbicidal effect, Scirpus juncoides Roxb.” value [7] was 3 (50 to less than 70% of herbicidal effect and crop phytotoxicity).

`O=C1CCCC(O)=C1C(=O)c1ccc(C(F)(F)F)n(CC2OCCO2)c1=O` [I-138] was tested, and the “herbicidal effect, Barnyardgrass” value [1] was 5 (90% or more of herbicidal effect and crop phytotoxicity), the “herbicidal effect, Slender Amaranth” value [2] was 5 (90% or more of herbicidal effect and crop phytotoxicity) and the “herbicidal effect, Green Foxtail” value [3] was 4 (70 to less than 90% of herbicidal effect and crop phytotoxicity). The “herbicidal effect, Velvetleaf” value [4] was 5 (90% or more of herbicidal effect and crop phytotoxicity), the “herbicidal effect, Echinochloa oryzicola Vasing” value [5] was 5 (90% or more of herbicidal effect and crop phytotoxicity) and the “herbicidal effect, Monochoria vaginalis” value [6] was 5 (90% or more of herbicidal effect and crop phytotoxicity). For the same compound, the “herbicidal effect, Scirpus juncoides Roxb.” value [7] was 5 (90% or more of herbicidal effect and crop phytotoxicity).

For `CNn1c(C(F)(F)F)ccc(C(=O)C2=C(O)CCCC2=O)c1=O` [I-157], the “herbicidal effect, Barnyardgrass” value [1] was 5 (90% or more of herbicidal effect and crop phytotoxicity), the “herbicidal effect, Slender Amaranth” value [2] was 5 (90% or more of herbicidal effect and crop phytotoxicity) and the “herbicidal effect, Green Foxtail” value [3] was 5 (90% or more of herbicidal effect and crop phytotoxicity). The “herbicidal effect, Velvetleaf” value [4] was 5 (90% or more of herbicidal effect and crop phytotoxicity), the “herbicidal effect, Echinochloa oryzicola Vasing” value [5] was 5 (90% or more of herbicidal effect and crop phytotoxicity) and the “herbicidal effect, Monochoria vaginalis” value [6] was 5 (90% or more of herbicidal effect and crop phytotoxicity). For the same compound, the “herbicidal effect, Scirpus juncoides Roxb.” value [7] was 5 (90% or more of herbicidal effect and crop phytotoxicity).

With `CC(C)Nn1c(C(F)(F)F)ccc(C(=O)C2=C(O)CCCC2=O)c1=O` [I-160] the “herbicidal effect, Barnyardgrass” value [1] was 4 (70 to less than 90% of herbicidal effect and crop phytotoxicity), the “herbicidal effect, Slender Amaranth” value [2] was 5 (90% or more of herbicidal effect and crop phytotoxicity) and the “herbicidal effect, Green Foxtail” value [3] was 3 (50 to less than 70% of herbicidal effect and crop phytotoxicity). The “herbicidal effect, Velvetleaf” value [4] was 5 (90% or more of herbicidal effect and crop phytotoxicity), the “herbicidal effect, Echinochloa oryzicola Vasing” value [5] was 5 (90% or more of herbicidal effect and crop phytotoxicity) and the “herbicidal effect, Monochoria vaginalis” value [6] was 5 (90% or more of herbicidal effect and crop phytotoxicity). The “herbicidal effect, Scirpus juncoides Roxb.” value [7] was 5 (90% or more of herbicidal effect and crop phytotoxicity).
